Data taken from PubChem BioAssay (NCI).
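All cell lines were grown in 96-well plates and treated with compound for 48 hours. At the GI50, growth is halved. TGI marks complete inhibition of growth.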

Experiments:
Assay in all cases: NCI-60 cell line screen, 48 h
786-0 renal = system: 786-0 renal
HCC-2998 colon = system: HCC-2998 colon
K-562 leukemia = system: K-562 leukemia
M14 melanoma = system: M14 melanoma
SW-620 colon = system: SW-620 colon
UACC-257 melanoma = system: UACC-257 melanoma
UACC-62 melanoma = system: UACC-62 melanoma
UO-31 renal = system: UO-31 renal
MCF7 breast = system: MCF7 breast

SMILES | TGI (786-0 renal) [µM] | TGI (HCC-2998 colon) [µM] | TGI (K-562 leukemia) [µM] | TGI (M14 melanoma) [µM] | TGI (SW-620 colon) [µM] | TGI (UACC-257 melanoma) [µM] | TGI (UACC-62 melanoma) [µM] | TGI (UO-31 renal) [µM] | GI50 (786-0 renal) [µM] | GI50 (HCC-2998 colon) [µM] | GI50 (K-562 leukemia) [µM] | GI50 (M14 melanoma) [µM] | GI50 (MCF7 breast) [µM] | TGI (MCF7 breast) [µM] | GI50 (SW-620 colon) [µM] | GI50 (UACC-257 melanoma) [µM] | GI50 (UACC-62 melanoma) [µM] | GI50 (UO-31 renal) [µM]
CN(C(=O)/C=C/c1ccccc1)C1C2CN3CCC(O2)C13 (configuration not stated) | > 100 | > 100 | > 100 | > 100 | > 100 | > 100 | > 100 | > 100 |  |  |  |  |  |  |  |  |  | 
COC1=NCc2ccccc2-c2ccccc21 | > 100 |  | > 100 |  |  | > 100 | > 100 | > 100 |  |  |  |  |  |  |  |  |  | 
CCCN1C(=O)NC(=O)C(CC)(N2C(=O)c3c(F)c(F)c(F)c(F)c3C2=O)C1=O (configuration not stated) | 7.75 | 3.93 | 4.55 | 6.37 | 2.82 | 8.63 | 5.94 | 4.32 | 2.66 | 1.8 | 1.73 | 2.2 | 0.987 | 4.06 | 1.3 | 2.99 | 1.99 | 1.63
C[N+](C)(C)CCC(=O)CC[N+](C)(C)C | 46.5 | 53.9 | 24.3 | 34.2 | 35.4 | 35.9 | 41.4 | > 100 |  |  |  |  |  |  |  |  |  | 
Cn1c(=O)nc2n(-c3ccc(O)cc3)c3ccccc3nc-2c1=O | > 100 | > 100 | > 100 | > 100 | > 100 | > 100 | 52.5 | > 100 |  |  |  |  |  |  |  |  |  | 
CCSCCCSCCSCC | > 100 | > 100 | > 100 | > 100 | > 100 | > 100 | > 100 | > 100 |  |  |  |  |  | > 100 |  |  |  | 
c1ccc(C2ONC3=NCCN32)cc1 (configuration not stated) | 68 | > 100 | > 100 | > 100 | > 100 | > 100 | > 100 | > 100 | 13.3 | 58.1 | 16.1 | > 100 | 55.9 | > 100 | 44.7 | > 100 | 39.4 | 27.3
C1CSCCCSCCCSCCCSCCCSCCCSCCCSCCCSC1 | > 100 | > 100 | > 100 | > 100 | > 100 | > 100 |  | > 100 |  |  |  |  |  | > 100 |  |  |  | 
COC(=O)c1sc(C(=O)OC)c2c1CS(=O)C2 | > 100 | > 100 | > 100 | > 100 | > 100 | > 100 | > 100 | > 100 |  |  |  |  |  |  |  |  |  | 
O=C1C[C@H]2CCCN2[C@@H](c2ccccc2)C1 | > 100 | > 100 | > 100 | > 100 | > 100 | > 100 | > 100 | > 100 |  |  |  |  |  |  |  |  |  | 
CCOC(=O)Cc1nc2ccc3c(c2[nH]c1=O)C(=O)c1ccccc1C3=O | > 100 | > 100 | > 100 | > 100 | > 100 | > 100 | > 100 | > 100 |  |  |  |  |  |  |  |  |  | 
CCc1cccc(C)c1NS(=O)(=O)c1ccccc1 | > 100 | > 100 | > 100 | > 100 | > 100 | > 100 | > 100 | > 100 |  |  |  |  |  |  |  |  |  | 
O=C(O)CCNS(=O)(=O)c1ccc(NC(=O)c2ccccc2)cc1 | > 100 | > 100 | > 100 | > 100 | > 100 | > 100 | > 100 | > 100 |  |  |  |  |  |  |  |  |  | 
Cn1c(=O)c(N=Nc2c(=O)n(C)c(=O)n3c2[nH]c2ccccc23)c2[nH]c3ccccc3n2c1=O | > 100 | > 100 | > 100 | > 100 | > 100 | > 100 | > 100 | > 100 |  |  |  |  |  |  |  |  |  | 
COc1cc(/C=C/C(=O)/C=C/c2cc(OC)c3c(c2)OCO3)cc2c1OCO2 | > 100 | 3.73 | > 100 | 19.4 | > 100 | 41.9 | > 100 | > 100 | 9.63 | 1.98 | 22.9 | 4.03 |  |  | 3.38 | 3.52 | 16.3 | 5.77
O=C(N/N=C/c1ccccc1O)N/N=C/c1ccccc1O | > 100 | > 100 | > 100 | > 100 | > 100 | > 100 | > 100 | > 100 |  |  |  |  |  |  |  |  |  | 
O=C(Oc1cccnc1)c1cccnc1Nc1ccnc(C(F)(F)F)c1 | 22.4 | 35.3 | > 100 |  | > 100 | > 100 | 24.1 | 81.5 | 5.17 | 16.8 | 5.18 |  | 2.68 | > 100 | 5.47 | 27.1 | 5.78 | 10
O=C(NCCCOC(=O)CCCCCCCCC(=O)OCCCNC(=O)NC(=O)c1c[nH]c(=O)[nH]c1=O)NC(=O)c1c[nH]c(=O)[nH]c1=O | > 100 | > 100 | > 100 | > 100 | > 100 | > 100 | > 100 |  |  |  |  |  |  |  |  |  |  | 
